Results from ChEMBL document CHEMBL3045621, “Synthesis and Structure-activity Relationships of Herbicidal Thiophene Sulfonylurea Compounds” (J Pestic Sci, 1997).

How the values were obtained:
[1] = tested on: Schoenoplectiella juncoides; assay: Herbicidal activity against Schoenoplectiella juncoides assessed as dose required to cause sufficient herbicidal activity after 5 to 7 days; format: functional
[2] = tested on: Echinochloa oryzicola; assay: Herbicidal activity against Echinochloa oryzicola assessed as dose required to cause sufficient herbicidal activity; format: functional
[3] = tested on: Sagittaria pygmaea; assay: Herbicidal activity against Sagittaria pygmaea assessed as dose required to cause sufficient herbicidal activity after 5 to 7 days; format: functional
[4] = tested on: Oryza sativa; assay: Toxicity in two leaf stage of Oryza sativa var. Nihonbare (rice) assessed as dose required to selectivity to Oryza sativa; format: organism-based; details: in vivo

With `COc1cc(OC)nc(NC(=O)NS(=O)(=O)c2sccc2CSC#N)n1` the MED [1] was 1.25 g/acre, the MED [2] was 1.25 g/acre and the MED [3] was 0.625 g/acre. The MED [4] was 0.313 g/acre.
